Assay results taken from publication PMC12746157, “Light-Regulated Agonists Spatiotemporally Activating the Vitamin D Receptor Mitigate Psoriasis-like Inflammation in Mice without Inducing Hypercalcemia” (ACS Central Science, 2025).

Legend:
[1] = Proportions of cis and trans at the photostationary state in DMSO from absorbance spectra (Ernst Fischer method); assay type: physicochemical
Protocol: 2. Photochemical characterization.
A 50 µM solution of each compound in DMSO was dispensed into a transparent 96-well plate (200 µL per well). The absorption spectra were recorded from 300 to 600 nm with 2 nm fixed intervals using a Tecan Spark 20M Multimode microplate reader. Initial measurements were performed in the dark, followed by spectra acquired immediately after each 3 min period of light irradiation at different wavelengths using 96-well LED array plates (LEDA Teleopto). Theoretical absorbance spectra corresponding to the pure cis isomer (100%) of each compound were calculated in order to obtain the theoretical percentage of cis isomer at each wavelength, according to the method described by Ernst Fischer (1967). […]
Table S6. Proportions of cis and trans at the photostationary state in DMSO. […]

[2] = molecular target: VDR (Homo sapiens, UniProt P11473); assay: Luminescent proximity homogeneous assay (AlphaScreen): interaction of purified VDR, RxR and TRAP220 coactivator fragment; assay type: biochemical; settings: for EC50: n >= 3, read-out: Activity (pEC50) (converted); for Activity in the dark: dark (trans), concentrations up to 10 μM
Protocol: The activity of all molecules was evaluated using a luminescent proximity homogeneous assay to study interactions between purified VDR, RxR and a fragment of the transcriptional coactivator TRAP220 (Supporting Information). This method allowed us to monitor the interaction between TRAP220 and the activated VDR-RxR heterodimer, which is of mechanistic and physiological significance. Both the activation of VDR and the VDR-RxR heterodimer formation are necessary to promote the whole complex association. This system efficiently includes conformational events of the receptor upon activation that go beyond a simple binding measurement. […]
The activity of all molecules was evaluated using an in-vitro luminescent proximity homogeneous assay by using the Alphascreen technology (Cat No. 6760619R, Perkin Elmer, now Revvity). In a transparent 96-well preplate, 10X concentrations of the compounds were prepared in assay buffer (0.1% bovine serum albumin, 2 mM 1,4-dithiothreitol, 25 mM HEPES and 100 mM NaCl; pH 7.3). LSN2148936 was used as positive control. Purified histidine-tagged VDR (44 µM), flag-RxRa (5.7 µM), biotin tagged TRAP220 transcriptional coactivator (500 µM), and the donor and acceptor beads from the AlphaScreen kit (2 µL/mL each), were diluted in assay buffer. In the dark, 6 µL/well of each test compound were pipetted on a white, shallow 96-well ProxiPlateTM […]
(Perkin Elmer, now Revvity, Cat.No. 6006290) in duplicate. Immediately, 54 µL of the protein solution were added and the plate was covered and incubated for 30 min at room temperature in the dark. Meanwhile, the plate with the 10X dilutions was illuminated at 365 nm for 3 min in a 96-well DED array plate (LEDA Teleopto), to allow the photoconversion of the molecules to their cis configuration. The illuminated compounds were mixed with the protein solution and incubated as described above for the plate in the dark. After the incubation time, the counts of both, the dark and illuminated plates, were measured in a Tecan Spark 20M Multimode plate reader with defined settings (excitation: 680 nm, emission: 520-620 nm, excitation time: 100ms, integration time: 300 ms). Biotinylated-His6 peptide (PerkinElmer) was used as a quality control reagent for AlphaScreen® assays and to evaluate compound interaction with the method. The raw data were normalized to the effect of the buffer (0%) and the maximum response obtained with LSN2148936 (100%). Dose-response curves and EC50 values were calculated with Graphpad software. Each experiment was performed in triplicate, with 2 replicates per plate.
4. Hydrogen/deuterium exchange coupled to mass spectrometry (HDX-MS)
The HDX-MS experiments were performed with an in-house automated modular system interfaced with an Orbitrap Exploris 480 mass spectrometer.1 Two inter-day experiments were conducted: one in the dark (first day) and one illuminated with 365 nm light (second day). Sample preparation and on-exchange reactions were performed on opaque plates (VWR® Real-Time […]
mm, Part Nº BC5226) light source was positioned above the Tecan system used for sample preparation. The distance between the UV light and the opaque plates was 80 cm. The 365 nm light illuminated the sample preparation process and the on-exchange reaction on the second day.
A 10 µM VDR-LBD protein stock solution was prepared in 20 mM HEPES buffer (with 150 mM NaCl, 10 mM D-L Methionine and 5 mM DTT) at pH 7.5. The compound 11b was prepared at 10 mM in DMSO. The protein: compound-complex (1:10 molar ratio) was pre-incubated for 1h before the first on-exchange reaction. The HDX reaction was initiated by a 5-fold dilution of the protein stock solution, in the presence and absence of compound 11b, in the corresponding Deuterated buffer at room temperature. Samples were prepared in parallel with three replicates of […]
time point, HDX reactions were quenched with a solution of 3 M Urea and 1% TFA (pH 2.5) followed by online proteolysis with an in-house Pepsin immobilized column and desalting […]

[3] = after illumination (365 nm) for 3 min, mean ± SEM
[4] = after illumination (365 nm) for 3 min, normalized to maximum response of LSN2148936 (100%), mean ± SEM

VDR, sequence (P11473 whole entry, the tested form may be a part): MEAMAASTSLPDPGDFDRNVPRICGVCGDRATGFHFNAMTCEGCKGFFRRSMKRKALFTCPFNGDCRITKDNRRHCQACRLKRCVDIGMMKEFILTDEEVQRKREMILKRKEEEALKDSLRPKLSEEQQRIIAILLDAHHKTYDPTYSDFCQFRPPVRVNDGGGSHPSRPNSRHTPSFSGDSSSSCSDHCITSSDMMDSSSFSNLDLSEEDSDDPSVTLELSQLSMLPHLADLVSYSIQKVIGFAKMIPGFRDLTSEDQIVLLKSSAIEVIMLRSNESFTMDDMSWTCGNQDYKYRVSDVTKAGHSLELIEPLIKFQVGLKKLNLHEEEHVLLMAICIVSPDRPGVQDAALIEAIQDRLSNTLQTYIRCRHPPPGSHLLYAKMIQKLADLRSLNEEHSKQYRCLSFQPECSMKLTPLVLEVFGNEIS
VDR, sequence (P19793 whole entry partner, the tested form may be a part): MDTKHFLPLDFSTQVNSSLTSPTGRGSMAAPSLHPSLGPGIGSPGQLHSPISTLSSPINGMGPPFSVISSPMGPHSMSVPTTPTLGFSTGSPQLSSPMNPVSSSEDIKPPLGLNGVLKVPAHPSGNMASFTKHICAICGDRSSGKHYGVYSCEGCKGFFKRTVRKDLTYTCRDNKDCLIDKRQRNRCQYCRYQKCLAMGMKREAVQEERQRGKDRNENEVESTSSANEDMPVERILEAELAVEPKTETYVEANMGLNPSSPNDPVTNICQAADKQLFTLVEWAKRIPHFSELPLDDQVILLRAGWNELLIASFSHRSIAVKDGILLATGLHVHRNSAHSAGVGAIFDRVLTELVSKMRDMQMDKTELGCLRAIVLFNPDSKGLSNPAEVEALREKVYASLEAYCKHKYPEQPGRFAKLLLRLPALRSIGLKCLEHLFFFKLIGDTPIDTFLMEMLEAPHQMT
VDR, sequence (Q15648 whole entry partner, the tested form may be a part): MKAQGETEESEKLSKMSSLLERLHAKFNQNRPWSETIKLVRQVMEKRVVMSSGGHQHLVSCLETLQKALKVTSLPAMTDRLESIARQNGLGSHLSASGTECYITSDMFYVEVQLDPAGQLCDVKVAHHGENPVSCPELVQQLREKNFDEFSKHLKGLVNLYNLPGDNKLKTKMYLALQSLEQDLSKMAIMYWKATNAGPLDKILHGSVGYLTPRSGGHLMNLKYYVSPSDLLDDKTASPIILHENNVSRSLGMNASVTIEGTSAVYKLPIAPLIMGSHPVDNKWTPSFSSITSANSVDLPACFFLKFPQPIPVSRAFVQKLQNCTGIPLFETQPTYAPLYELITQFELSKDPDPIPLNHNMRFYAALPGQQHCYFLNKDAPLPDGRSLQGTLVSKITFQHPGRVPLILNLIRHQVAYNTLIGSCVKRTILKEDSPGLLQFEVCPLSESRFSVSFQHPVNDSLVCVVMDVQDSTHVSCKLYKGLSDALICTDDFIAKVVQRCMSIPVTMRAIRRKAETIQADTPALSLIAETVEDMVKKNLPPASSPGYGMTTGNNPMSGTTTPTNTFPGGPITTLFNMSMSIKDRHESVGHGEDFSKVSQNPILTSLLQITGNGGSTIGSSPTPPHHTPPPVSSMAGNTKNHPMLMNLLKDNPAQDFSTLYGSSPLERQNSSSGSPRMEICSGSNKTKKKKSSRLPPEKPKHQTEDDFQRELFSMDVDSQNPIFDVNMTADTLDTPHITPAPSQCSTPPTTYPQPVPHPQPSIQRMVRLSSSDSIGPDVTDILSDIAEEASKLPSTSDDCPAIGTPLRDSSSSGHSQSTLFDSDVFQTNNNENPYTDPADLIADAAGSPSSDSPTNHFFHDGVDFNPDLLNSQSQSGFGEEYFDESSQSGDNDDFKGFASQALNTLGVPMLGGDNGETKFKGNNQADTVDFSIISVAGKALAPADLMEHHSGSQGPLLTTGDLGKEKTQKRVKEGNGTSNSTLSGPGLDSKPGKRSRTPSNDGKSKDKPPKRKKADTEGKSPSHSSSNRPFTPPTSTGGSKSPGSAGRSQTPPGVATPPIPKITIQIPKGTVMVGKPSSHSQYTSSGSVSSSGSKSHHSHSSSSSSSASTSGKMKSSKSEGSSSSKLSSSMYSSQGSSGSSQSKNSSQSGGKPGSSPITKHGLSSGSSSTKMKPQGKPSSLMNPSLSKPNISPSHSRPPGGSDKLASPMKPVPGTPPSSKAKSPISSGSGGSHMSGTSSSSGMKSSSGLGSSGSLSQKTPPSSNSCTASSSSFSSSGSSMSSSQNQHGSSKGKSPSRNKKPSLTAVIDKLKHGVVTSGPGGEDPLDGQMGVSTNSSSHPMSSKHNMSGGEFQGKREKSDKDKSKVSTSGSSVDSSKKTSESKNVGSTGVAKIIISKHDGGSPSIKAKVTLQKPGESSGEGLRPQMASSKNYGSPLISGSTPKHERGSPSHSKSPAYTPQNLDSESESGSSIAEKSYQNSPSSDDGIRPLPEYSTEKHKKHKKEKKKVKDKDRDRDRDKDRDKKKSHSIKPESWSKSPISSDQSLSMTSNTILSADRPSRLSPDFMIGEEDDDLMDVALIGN

Structure (SMILES) | %cis at the photostationary state ([1]; 365 nm) | %trans at the photostationary state ([1]; 365 nm) | %cis at the photostationary state ([1]; 380 nm) | %trans at the photostationary state ([1]; 380 nm) | %cis at the photostationary state ([1]; 405 nm) | %trans at the photostationary state ([1]; 405 nm) | %cis at the photostationary state ([1]; 420 nm) | %trans at the photostationary state ([1]; 420 nm) | %cis at the photostationary state ([1]; 470 nm) | %trans at the photostationary state ([1]; 470 nm) | %cis at the photostationary state ([1]; 500 nm) | %trans at the photostationary state ([1]; 500 nm) | %cis at the photostationary state ([1]; 530 nm) | %trans at the photostationary state ([1]; 530 nm) | EC50 [2, 3] | Emax [2, 4] | Activity in the dark [2] | %cis at the photostationary state ([1]; 420 nm, listed as PhotoVDRM) | Activity (Emax) ([2]; after illumination (365 nm) for 3 min, normalized to maximum response of LSN2148936 (100%), mean ± SEM, listed as 11b (PhotoVDRM)) | antagonist activity ([2]; several concentrations with LSN2148936 at 300nM, dark or 365 nm)
COC(=O)c1ccc(-c2cccc(/N=N/c3ccc(OCC(O)C(C)(C)C)c(C)c3)c2)cc1 (stereo not shown) [Compound 10a] | 93,70% | 6,30% | 91,83% | 8,17% | 60,42% | 39,58% | 58,05% | 41,95% | 29,15% | 70,85% | 25,54% | 74,46% | 20,56% | 79,44% | 1.1 µM | 23 ± 2.65% | – | – | – | –
COC(=O)c1ccc(-c2cccc(/N=N/c3ccc(OCC(O)C(C)(C)C)cc3C)c2)cc1 (stereo not shown) [Compound 10b] | 97,26% | 2,74% | 96,48% | 3,52% | 66,00% | 34,00% | 62,72% | 37,28% | 34,89% | 65,11% | 35,65% | 64,35% | 31,97% | 68,03% | 0.1 µM | 44 ± 0.66% | – | – | – | –
COC(=O)c1ccc(-c2cccc(/N=N/c3ccc(OCC(O)C(C)(C)C)c(C)c3)c2)c(C)c1 (stereo not shown) [Compound 10c] | 97,00% | 3,00% | 95,62% | 4,38% | 61,14% | 38,86% | 59,71% | 40,29% | 30,53% | 69,47% | 26,82% | 73,18% | 21,34% | 78,66% | 1.86 µM | 29 ± 4.31% | – | – | – | –
COC(=O)c1ccc(-c2cccc(/N=N/c3ccc(OCC(O)C(C)(C)C)cc3C)c2)c(C)c1 (stereo not shown) [Compound 10d] | 96,30% | 3,70% | 95,32% | 4,68% | 62,22% | 37,78% | 59,99% | 40,01% | 29,82% | 70,18% | 25,21% | 74,79% | 20,03% | 79,97% | 0.813 µM | 30 ± 1.71% | – | – | – | –
Cc1cc(OCC(O)C(C)(C)C)ccc1N=Nc1cccc(-c2ccc(C(=O)O)cc2)c1 (stereo not shown) [Compound 11b] | 96,87% | 3,13% | 95,62% | 4,38% | 63,64% | 36,36% | 60,47% | 39,53% | 31,30% | 68,70% | 32,81% | 67,19% | 29,14% | 70,86% | 0.0589 µM | > 80% | inactive | up to 60% | 84 ± 2.62% | does no act as antagonist

More lines, main results first:

%cis at the photostationary state ([1]; 365 nm) | %trans at the photostationary state ([1]; 365 nm) | %cis at the photostationary state ([1]; 380 nm) | %trans at the photostationary state ([1]; 380 nm) | %cis at the photostationary state ([1]; 405 nm) | %trans at the photostationary state ([1]; 405 nm) | %cis at the photostationary state ([1]; 420 nm) | %trans at the photostationary state ([1]; 420 nm) | %cis at the photostationary state ([1]; 470 nm) | %trans at the photostationary state ([1]; 470 nm) | %cis at the photostationary state ([1]; 500 nm) | %trans at the photostationary state ([1]; 500 nm) | %cis at the photostationary state ([1]; 530 nm) | %trans at the photostationary state ([1]; 530 nm) | EC50 [2, 3] | Emax [2, 4] | Structure (SMILES) | Activity in the dark [2] | %cis at the photostationary state ([1]; 420 nm, listed as PhotoVDRM) | Activity (Emax) ([2]; after illumination (365 nm) for 3 min, normalized to maximum response of LSN2148936 (100%), mean ± SEM, listed as 11b (PhotoVDRM)) | antagonist activity ([2]; several concentrations with LSN2148936 at 300nM, dark or 365 nm)
94,52% | 5,48% | 92,81% | 7,19% | 60,54% | 39,46% | 58,09% | 41,91% | 29,80% | 70,20% | 26,59% | 73,41% | 21,22% | 78,78% | 1.26 µM | 60 ± 1.26% | Cc1cc(/N=N/c2cccc(-c3ccc(C(=O)O)cc3)c2)ccc1OCC(O)C(C)(C)C (stereo not shown) [Compound 11a] | small increase in the activity | – | – | –
97,22% | 2,78% | 94,72% | 5,28% | 61,36% | 38,64% | 59,26% | 40,74% | 31,49% | 68,51% | 28,18% | 71,82% | 22,70% | 77,30% | 0.575 µM | 68 ± 3.73% | Cc1cc(/N=N/c2cccc(-c3ccc(C(=O)O)cc3C)c2)ccc1OCC(O)C(C)(C)C (stereo not shown) [Compound 11c] | – | – | – | –
96,79% | 3,21% | 95,58% | 4,42% | 61,42% | 38,58% | 54,69% | 45,31% | 28,11% | 71,89% | 29,74% | 70,26% | 25,59% | 74,41% | 0.209 µM | 93 ± 6.73% | Cc1cc(OCC(O)C(C)(C)C)ccc1/N=N/c1cccc(-c2ccc(C(=O)O)cc2C)c1 (stereo not shown) [Compound 11d] | – | – | – | –
